The values below come from patent US20190358176A1, “METHODS OF SENSITIZING CANCER CELLS TO IMMUNE CELL KILLING” (University of Pittsburgh - of the Commonwealth System of …, priority 2017, published 2019).

Each structure is given as a SMILES string. pIC50: −log10 of the molar value. Read-outs that look alike come from different tables or passages of the source.

One data set deals with zebrafish embryos. As to the kind of experiment: ROS generation in zebrafish embryos (DHE). The format is in vivo. The note with it: developing zebrafish embryos, 48 hpf. On the procedure: All procedures involving zebrafish were reviewed and approved by the University of Pittsburgh Institutional Animal Care and Use Committee. Wildtype AB* embryos were kept in E3 medium (5 mM NaCl, 0.17 mM KCl, 0.33 mM CaCl2, 0.33 mM MgSO4). At 48 hours post fertilization (hpf), embryos were arrayed into the wells of a 96 well microplate and treated with vehicle (0.5% DMSO) or test agents. After a 30-min pre-incubation, embryos were labeled with a solution of 10 μM DHE and 40 μg/mL MS222 (tricaine methanesulfonate, Sigma) in E3 to restrict movement during imaging. Six hours after DHE loading, embryos were imaged on an ArrayScan II using a 2.5× objective. Images were analyzed for oxyethidium fluorescence with the TargetActivation Bioapplication using the MEAN_ObjectAvgIntenCh1 parameter.

The next data set concerns MDA-MB-231 cells. As to the kind of experiment: HCA of apoptosis and ERK phosphorylation (multiparametric: nuclear condensation, caspase-3 cleavage, ERK phosphorylation). As to conditions: for pIC50: Homo sapiens, 24 hours. The format is cell-based, human. The method, then: MDA-MB-231 cells (10,000/well) were treated with identical concentration gradients of test agents on the right and left half of a 384 well microplate for later assessment of potential compound autofluorescence. After 24 hours, cells were fixed, permeabilized with 0.2% Triton X-100, blocked with 1% BSA/PBS, and immunostained with anti-phospho-ERK (E10, CST cat#9106L)/AlexaFluor488 and anti-cleaved caspase-3 (CST cat#9664L)/AlexaFluor594 primary/secondary antibody pairs. Plates were imaged on the ArrayScan II using a 10×0.5NA objective. Each well was background corrected by subtracting mean phospho-ERK and cleaved caspase-3 intensities from wells that had received secondary antibody only. Data in Table 1 are the averages of the indicated numbers of independent experiments, each performed in quadruplicate. IC50, standard error, and 95% confidence intervals were calculated by […] in GraphPad Prism.
Multiple data points were analyzed in GraphPad Prism by one-way ANOVA using Dunnett's multiple comparison test. EC50/IC50 values were obtained from at least three independent experiments by non-linear regression using a four parameter logistic equation. IC50, standard error, and 95% confidence intervals were calculated in GraphPad.

For data set [1], the system named is rat hepatocytes. As to the kind of experiment: ROS generation in hepatocytes (DHE staining). The format is cell-based. The method, then: Cells were cultured as above and labeled four hours following drug addition with 4 μM DHE for 2 hours. Hoechst 33342 was added to a 4 μg/ml final concentration during the final hour of incubation. In the presence of ROS, DHE is oxidized to a red fluorescent dye (oxyethidium). Cells were imaged as above and the percentage of oxyethidium-nuclear positive cells calculated based on a threshold set with vehicle treated cells.

The test system of data set [2] is rat hepatocytes. As to the kind of experiment: Five-day hepatocyte toxicity (PI positive cells). The format is cell-based. The note with it: rat hepatocytes, 5-day exposure. The method, then:
Rat hepatocytes were isolated using standard two step collagenase digestion (15) and sub-cultivated at 14,000 hepatocytes/well in collagen-1 coated 384 well plates in Williams E Medium supplemented with 10% FBS, 2 mM L-glutamine and 50 U/ml Penicillin and streptomycin. After 4 hours, medium was decanted and replaced with Hepatocyte Maintenance Media (Williams E supplemented with 1.25 mg/ml bovine serum albumin, 6.25 μg/ml human insulin, 100 nM dexamethasone, 6.25 μg/ml human transferrin, 6.25 ng/ml selenous acid, 2 mM L-glutamine, 15 mM HEPES, 100 U/mL penicillin, and 100 U/mL streptomycin). After overnight culture, cells were treated with concentration gradients of test agents. One hour after compound addition, cells were labeled with 200 nM TMRE and 4 μg/ml Hoechst 33342 for 45 min, imaged live on an ArrayScan VTI using a 10× objective, and images were analyzed with the Compartmental Bioapplication. Mitochondria were identified as cytosolic spots by size and brightness. The final parameter was % HIGH RingSpotAvgIntenCh2 (i.e., percentage of cells with TMRE puncta in the cytoplasm based on a threshold set with vehicle treated cells).
A gelling solution of 1.25 mg/ml rat tail collagen type I in pH 7.2 90:10 (v/v) Williams E media/10×HBSS was overlaid onto the rat hepatocytes. The collagen gel was incubated for 1 hour at 37° C., 5% CO2. The collagen sandwich cultures were then challenged for 5 days to test compounds in Hepatocyte Maintenance Media, without refeeding. A 10× solution of 40 μg/ml Hoechst 33342 was added during the final 2 hours of incubation followed by a 10× solution of 20 μg/ml PI for 1 hour. Cells were imaged and the percentage of PI positive cells calculated as above.

The subject of a further data set is endothelial cell line. The note with it: prior SAR study (12); cited from earlier work.

For `O=C1/C(=C/c2ccccc2)C(NC2CCCCC2)c2cc(Br)ccc21` (centres unmarked) [BCI-215], in the data set on zebrafish embryos, the “generation of ROS in zebrafish embryos (DHE)” value is on record as “does not Generate Reactive Oxygen Species”. Also, in the data set on MDA-MB-231 cells (BCI and BCI-215 at 22 μM), the nuclear morphology entry is listed as “shrunken, condensed nuclei that resembled pyknosis”. Also, the pIC50 (in general, −log10 of the IC50, conventionally taken in molar units) is 4.81 in the data set with MDA-MB-231 cells (induction of phospho-ERK, read-out: IC50 ERK phosphorylation); 5.13 with MDA-MB-231 cells (read-out: IC50 Caspase-3 cleavage); 4.89 with MDA-MB-231 cells (read-out: IC50 Nuclear condensation). Also, the “generation of ROS in hepatocytes (DHE)” value in the data set on rat hepatocytes [1] was “does not Generate Reactive Oxygen Species”. Further, in the data set on rat hepatocytes [2], the “hepatocyte toxicity, cell death (PI positive cells)” value is on record as “completely devoid of hepatocyte toxicity up to 100”. In the data set on endothelial cell line, the “toxicity to an endothelial cell line” value was “non-toxic”.
